Results as given in US20020035146A1, “Antifungal compounds and compositions and antifungal use thereof” (priority 2000, published 2002).

How the values were obtained:
Botrytis cinerea spores = assay: Inhibition of germination of Botrytis cinerea spores (germination-associated adhesion in microtiter plates, sulforhodamine B); type: cell-based; details: B. cinerea spores in SDB, 25° C., 5.5 hours; compound 1 encapsulated in α-cyclodextrin (0.14% by weight)
Experimental: Compounds were evaluated for the ability to inhibit germination of Botrytis cinerea spores using an assay which measures the inhibition of germination-associated adhesion in microtiter plates. […] This solution was then diluted with SDB to give a solution concentration of compound 2 of 1000 ppm. Comparison compound, AVG, was dissolved in SDB at 5 mg/ml. Two-fold serial dilutions of the solutions of these compounds in SDB were made in 100 μl aliquots of SDB in 96-well microtiter plates. Spore suspension of B. cinerea (100 μl at 2×10^5 spores/ml) was added to the wells. The plates were then incubated at 25° C. for 5.5 hours at which time spores in control wells had germinated. The medium containing unbound spores was removed by inverting and flicking the microtiter plate to remove as much liquid as possible. Quantitation of the adhered spores was achieved by measuring their cellular protein content using sulforhodamine B (see Skehan et al., Journal of the National Cancer Institute, 82, 1107-1112 (1990)), measuring absorbance at 564 nm. Inhibition of adhesion was determined by comparing the absorbance value in a well containing fungicide with the absorbance in control wells without fungicide. EC50 values for germination inhibition were determined from dose-response curves.

[1] = test system: Colletotrichum lagenarium; type: cell-based; details: spore suspension, 25° C., 5 days, compound encapsulated in α-cyclodextrin (0.14% by weight)
Pyricularia oryzae = type: cell-based; details: spore suspension, 25° C., 5 days, compound encapsulated in α-cyclodextrin (0.14% by weight)
[2] = test system: Botrytis rot on rose petals; assay: Suppression of Botrytis rot on rose petals; type: in vivo; details: white rose petals exposed to 100 ppm in the gas phase for 90 minutes before inoculation; assessed after 10 days; two trials combined; control 66.7
Experimental: Freshly cut white roses were purchased from Zieger & Sons, Inc. rose growers. Non senescing petals were chosen to perform the experiment. Petals were placed in plastic petri dishes (100×20 mm) each containing a moist #3 Whatman filter paper with one petal per petri dish.
Compound 1, formulated as in Example 1 (0.778 g) was dissolved in 20 ml hot water in a 100 ml jar sealed with a cap. When the powder was dissolved, the jar was placed in a 4.8 liter cabinet containing three petri dishes (without the lids) with petals. The cap of the jar was quickly removed and the cabinets sealed for ninety (90) minutes. The concentration of Compound 1 in the gas phase was 100 ppm.
After exposure to Compound 1 at 100 ppm the petals were inoculated with two 20μl drops of spore suspension containing 1×10^6 spores per ml. Controls were inoculated without prior exposure to Compound 1.
Lids were placed on the petri dishes and the dishes were transferred to a plant growth chamber set at a 12 hour photoperiod, a 20° C. day temperature and 18° C. night temperature, and 70% relative humidity to allow disease development. The number of petals with sporulating lesions was determined after 10 days. Two trials were conducted with 3 petals per treatment in each trial. The combined results from the two trials were as follows: […]

Phytophthora capsici = type: cell-based; details: spore suspension, 25° C., 5 days, compound encapsulated in α-cyclodextrin (0.14% by weight)
Septoria nodorum = type: cell-based; details: spore suspension, 25° C., 2 days, compound encapsulated in α-cyclodextrin (0.14% by weight)
Rhizoctonia solani = type: cell-based; details: mycelial homogenate, 25° C., 5 days, compound encapsulated in α-cyclodextrin (0.14% by weight)
Pythium ultimum = type: cell-based; details: mycelial homogenate, 25° C., 2 days, compound encapsulated in α-cyclodextrin (0.14% by weight)
Botrytis cinerea = assay: Technical material v. formulation: inhibition of fungal growth in sealed vials (sulforhodamine B); type: cell-based; details: technical material added in acetone, 16 hours
Experimental: Since compound 1 is a gas at room temperature its activity as a technical material in solution was evaluated in sealed vials with a small head space as follows. Compound 1, formulated by encapsulation in a-cyclodextrin, was also tested for comparison.
Compound 1 (technical material) was added to 21×50 mm glass vials on dry ice as the appropriate amount of a 14% (w/v) solution in acetone to provide the desired concentrations. (The acetone solutions were kept on dry ice or in a freezer at −80° C. until used.) Controls received the same volumes of acetone alone. A spore suspension (8 ml) of Botrytis cinerea at 2.5×10^4 spores/ml in two-fold diluted SDB was added to each vial. The vials were immediately sealed with polyethylene plugs and placed in a […] incubator for 16 hours. The extent of fungal growth in the vials was determined by measuring their cellular protein content using sulforhodamine B (Skehan, et al., Journal of the National Cancer Institute 82, 1107-1112 (1990)), and the percent inhibition of growth was calculated by comparing growth in the treatments with growth in the controls.
The desired amounts of Compound 1, formulated by encapsulation in α-cyclodextrin ([…]) were added to glass vials. A spore suspension (8 ml) of Botrytis cinerea at 2.5×10^4 spores/ml in two-fold diluted SDB was added to each vial, and vials processed as described above.

Structure (SMILES)	EC50 for germination inhibition (Botrytis cinerea spores)	EC50 (mycelial growth) [1]	EC50 (mycelial growth) (Pyricularia oryzae)	Petals with sporulating lesions (%) [2]	EC50 (mycelial growth) (Phytophthora capsici)	EC50 (mycelial growth) (Septoria nodorum)	EC50 (mycelial growth) (Rhizoctonia solani)	EC50 (mycelial growth) (Pythium ultimum)	% Inhibition of growth (Botrytis cinerea; 175 ppm)	% Inhibition of growth (Botrytis cinerea; 350 ppm)	% Inhibition of growth (Botrytis cinerea; 525 ppm)
CCCCCCCCC1=CC1(F)F [Compound 2, 1-n-octyl-3,3-difluorocyclopropene]	3.3 ppm										
CC1=CC1 [Compound 1, 1-methylcyclopropene]	37 ppm	>70 ppm	6.7 ppm	16.7%	6.9 ppm	22.5 ppm	7.4 ppm	2.6 ppm	30.1%	99.4%	99.8%
